Patent publication US20250101041A1, “POSITIVE ALLOSTERIC MODULATORS OF THE MUSCARINIC ACETYLCHOLINE RECEPTOR M4” (Vanderbilt University, priority 2022, published 2025)

Target: T1, human mAChR M4 (Homo sapiens, UniProt P08173)
T1 construct: expressed in transfected cells; host or cells: CHO-K1 (American Type Culture Collection), stably expressing hM4 and Gqi5
T1 sequence (P08173 1-479): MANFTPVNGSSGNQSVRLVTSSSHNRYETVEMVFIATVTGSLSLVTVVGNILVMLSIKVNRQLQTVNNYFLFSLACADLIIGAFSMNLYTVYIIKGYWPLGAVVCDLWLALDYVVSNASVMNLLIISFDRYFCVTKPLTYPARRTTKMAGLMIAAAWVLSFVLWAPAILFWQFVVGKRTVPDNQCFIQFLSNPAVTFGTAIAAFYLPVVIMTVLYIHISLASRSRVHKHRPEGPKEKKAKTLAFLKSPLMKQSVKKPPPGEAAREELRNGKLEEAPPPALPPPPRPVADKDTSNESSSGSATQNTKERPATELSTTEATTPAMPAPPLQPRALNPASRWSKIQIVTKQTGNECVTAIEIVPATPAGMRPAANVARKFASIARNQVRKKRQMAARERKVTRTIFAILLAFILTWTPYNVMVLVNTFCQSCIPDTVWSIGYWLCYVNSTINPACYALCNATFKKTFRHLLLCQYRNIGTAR
Test: mAChR M4 cell-based functional assay: calcium mobilization (Fluo-4, FDSS), potentiation of EC20 acetylcholine response in hM4-Gqi5 CHO-K1 cells
Conditions: human M4; for Emax at 30 µM: CHO-K1, % ACh maximum at 30 μM; for EC50: potentiation of EC20 acetylcholine response, calcium mobilization
How it was run: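 Readout is the fluorescence-ratio rise at 1 Hz on FDSS, with PAM activity taken as concentration-dependent enhancement of the EC20 acetylcholine response, fitted four-parameter for EC50/Emax. hM4-Gqi5 CHO-K1 cells carried Fluo-4 AM dye; test compounds (11 points, 1:3) preceded EC20 acetylcholine additions at 144 s and 230 s.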

In the case of COc1cc(C)c(-c2cnc3c(c2)CN(c2nn4c(=O)ccnc4cc2C)CC3)cn1 [Compound 1-387, 7-(3-(6-methoxy-4-methylpyridin-3-yl)-7,8-dihydro-1,6-naphthyridin-6(5H)-yl)-8-methyl-4H-pyrimido[1,2-b] pyridazin-4-one], the Emax at 30 µM is reported as 92% and the EC50 is reported as 46 nM.
In the case of CC(=O)N1CC=C(c2cnc3c(c2)CN(c2nn4c(=O)ccnc4cc2C)CC3)CC1 [Compound 1-388, 7-(3-(1-acetyl-1,2,3,6-tetrahydropyridin-4-yl)-7,8-dihydro-1,6-naphthyridin-6(5H)-yl)-8-methyl-4H-pyrimido[1,2-b]pyridazin-4-one], the Emax at 30 µM is reported as 61% and the EC50 is reported as 1280 nM.
Cc1nc(-c2cnc3c(c2)CN(c2nn4c(=O)ccnc4cc2C)CC3)cs1 [Compound 1-389, 8-methyl-7-(3-(2-methylthiazol-4-yl)-7,8-dihydro-1,6-naphthyridin-6(5H)-yl)-4H-pyrimido[1,2-b] pyridazin-4-one] gave an Emax at 30 µM of 63% and an EC50 of 271 nM.
In the case of Cc1cc(-c2cnc3c(c2)CN(c2nn4c(=O)ccnc4cc2C)CC3)n(C)n1 [Compound 1-390, 7-(3-(1,3-dimethyl-1H-pyrazol-5-yl)-7,8-dihydro-1,6-naphthyridin-6(5H)-yl)-8-methyl-4H-pyrimido[1,2-b]pyridazin-4-one], the Emax at 30 µM is reported as 98% and the EC50 is reported as 486 nM.
With Cc1cc2nccc(=O)n2nc1N1CCc2ncc(-c3ncc(C)n3C)cc2C1 [Compound 1-391, 7-(3-(1,5-dimethyl-1H-imidazol-2-yl)-7,8-dihydro-1,6-naphthyridin-6(5H)-yl)-8-methyl-4H-pyrimido[1,2-b]pyridazin-4-one] the Emax at 30 µM was 49%.
In the case of Cc1cc2nccc(=O)n2nc1N1CCc2ncc(-c3cncn3C)cc2C1 [Compound 1-392, 8-methyl-7-(3-(1-methyl-1H-imidazol-5-yl)-7,8-dihydro-1,6-naphthyridin-6(5H)-yl)-4H-pyrimido[1,2-b] pyridazin-4-one], the Emax at 30 µM is reported as 105% and the EC50 is reported as 259 nM.
With Cc1cc2nccc(=O)n2nc1N1CCc2ncc(-c3ncsc3C)cc2C1 [Compound 1-393, 8-methyl-7-(3-(5-methylthiazol-4-yl)-7,8-dihydro-1,6-naphthyridin-6(5H)-yl)-4H-pyrimido[1,2-b]pyridazin-4-one] the Emax at 30 µM was 83% and the EC50 was 1050 nM.
Cc1cscc1-c1cnc2c(c1)CN(c1nn3c(=O)ccnc3cc1C)CC2 [Compound 1-394, 8-methyl-7-(3-(4-methylthiophen-3-yl)-7,8-dihydro-1,6-naphthyridin-6(5H)-yl)-4H-pyrimido[1,2-b]pyridazin-4-one] was tested, and the Emax at 30 µM was 86% and the EC50 was 74 nM.
Compound Cc1cc2nccc(=O)n2nc1N1CCc2ncc(-c3scnc3C)cc2C1 [Compound 1-395, 8-methyl-7-(3-(4-methylthiazol-5-yl)-7,8-dihydro-1,6-naphthyridin-6(5H)-yl)-4H-pyrimido[1,2-b]pyridazin-4-one] has an Emax at 30 µM of 90% and an EC50 of 138 nM.
Cc1cc2nccc(=O)n2nc1N1CCc2ncc(-c3ccnn3C(C)C)cc2C1 [Compound 1-396, 7-(3-(1-isopropyl-1H-pyrazol-5-yl)-7,8-dihydro-1,6-naphthyridin-6(5H)-yl)-8-methyl-4H-pyrimido[1,2-b]pyridazin-4-one] gave an Emax at 30 µM of 60% and an EC50 of 597 nM.
Work on Cc1ncc(-c2cnc3c(c2)CN(c2nn4c(=O)ccnc4cc2C)CC3)o1 [Compound 1-397, 8-methyl-7-(3-(2-methyloxazol-5-yl)-7,8-dihydro-1,6-naphthyridin-6(5H)-yl)-4H-pyrimido[1,2-b]pyridazin-4-one] yielded an Emax at 30 µM of 87% and an EC50 of 1080 nM.
In the case of Cc1cc(F)ncc1-c1cnc2c(c1)CN(c1nn3c(=O)ccnc3cc1C)CC2 [Compound 1-398, 7-(3-(6-fluoro-4-methylpyridin-3-yl)-7,8-dihydro-1,6-naphthyridin-6(5H)-yl)-8-methyl-4H-pyrimido[1,2-b]pyridazin-4-one], the Emax at 30 µM is reported as 93% and the EC50 is reported as 169 nM.
Work on Cc1cc2nccc(=O)n2nc1N1CCc2ncc(-c3cncc(F)c3C)cc2C1 [Compound 1-399, 7-(3-(5-fluoro-4-methylpyridin-3-yl)-7,8-dihydro-1,6-naphthyridin-6(5H)-yl)-8-methyl-4H-pyrimido[1,2-b]pyridazin-4-one] yielded an Emax at 30 µM of 63% and an EC50 of 130 nM.
Cc1cc(C(F)(F)F)ncc1-c1cnc2c(c1)CN(c1nn3c(=O)ccnc3cc1C)CC2 [Compound 1-400, 8-methyl-7-(3-(4-methyl-6-(trifluoromethyl)pyridin-3-yl)-7,8-dihydro-1,6-naphthyridin-6(5H)-yl)-4H-pyrimido[1,2-b] pyridazin-4-one] gave an Emax at 30 µM of 95% and an EC50 of 433 nM.
Compound Cc1cc2nccc(=O)n2nc1N1CCc2ncc(-c3c(C)ccnc3C)cc2C1 [Compound 1-401, 7-(3-(2,4-dimethylpyridin-3-yl)-7,8-dihydro-1,6-naphthyridin-6(5H)-yl)-8-methyl-4H-pyrimido [1,2-b]pyridazin-4-one] has an Emax at 30 µM of 39%.
Compound Cc1ccncc1-c1cnc2c(c1)CN(c1nn3c(=O)ccnc3cc1C)CC2 [Compound 1-403, 8-methyl-7-(3-(4-methylpyridin-3-yl)-7,8-dihydro-1,6-naphthyridin-6(5H)-yl)-4H-pyrimido[1,2-b] pyridazin-4-one] has an Emax at 30 µM of 86% and an EC50 of 112 nM.
Cc1cc(N)ncc1-c1cnc2c(c1)CN(c1nn3c(=O)ccnc3cc1C)CC2 [Compound 1-404, 7-(3-(6-amino-4-methylpyridin-3-yl)-7,8-dihydro-1,6-naphthyridin-6(5H)-yl)-8-methyl-4H-pyrimido[1,2-b]pyridazin-4-one] showed an Emax at 30 µM of 97% and an EC50 of 165 nM.
For Cc1cc(C)c(-c2cnc3c(c2)CN(c2nn4c(=O)ccnc4cc2C)CC3)cn1 [Compound 1-405, 7-(3-(4,6-dimethylpyridin-3-yl)-7,8-dihydro-1,6-naphthyridin-6(5H)-yl)-8-methyl-4H-pyrimido [1,2-b]pyridazin-4-one], the Emax at 30 µM was 61% and the EC50 was 259 nM.
For Cc1cc(C(=O)O)ncc1-c1cnc2c(c1)CN(c1nn3c(=O)ccnc3cc1C)CC2 [Compound 1-406, 4-methyl-5-(6-(8-methyl-4-oxo-4H-pyrimido[1,2-b]pyridazin-7-yl)-5,6,7,8-tetrahydro-1,6-naphthyridin-3-yl)picolinic acid], the Emax at 30 µM was 86% and the EC50 was 3970 nM.
Cc1cc(N(C)C)ncc1-c1cnc2c(c1)CN(c1nn3c(=O)ccnc3cc1C)CC2 [Compound 1-407, 7-(3-(6-(dimethylamino)-4-methylpyridin-3-yl)-7,8-dihydro-1,6-naphthyridin-6(5H)-yl)-8-methyl-4H-pyrimido [1,2-b]pyridazin-4-one] was tested, and the Emax at 30 µM was 92% and the EC50 was 132 nM.
Cc1cc2nccc(=O)n2nc1N1CCc2ncc(-c3cnn(C)c3C)cc2C1 [Compound 1-408, 7-(3-(1,5-dimethyl-1H-pyrazol-4-yl)-7,8-dihydro-1,6-naphthyridin-6(5H)-yl)-8-methyl-4H-pyrimido[1,2-b]pyridazin-4-one] showed an Emax at 30 µM of 90% and an EC50 of 257 nM.
Cc1cc2nccc(=O)n2nc1N1CCc2ncc(-c3sccc3C)cc2C1 [Compound 1-409, 8-methyl-7-(3-(3-methylthiophen-2-yl)-7,8-dihydro-1,6-naphthyridin-6(5H)-yl)-4H-pyrimido[1,2-b]pyridazin-4-one] gave an Emax at 30 µM of 95% and an EC50 of 48 nM.
With Cc1cc2nccc(=O)n2nc1N1CCc2ncc(-c3ccsc3C#N)cc2C1 [Compound 1-410, 3-(6-(8-methyl-4-oxo-4H-pyrimido[1,2-b]pyridazin-7-yl)-5,6,7,8-tetrahydro-1,6-naphthyridin-3-yl)thiophene-2-carbonitrile] the Emax at 30 µM was 82% and the EC50 was 178 nM.
With Cc1cc2nccc(=O)n2nc1N1CCc2ncc(-c3cn(C)nc3C(F)(F)F)cc2C1 [Compound 1-411, 8-methyl-7-(3-(1-methyl-3-(trifluoromethyl)-1H-pyrazol-4-yl)-7,8-dihydro-1,6-naphthyridin-6(5H)-yl)-4H-pyrimido[1,2-b]pyridazin-4-one] the Emax at 30 µM was 82% and the EC50 was 1240 nM.
Cc1cc2nccc(=O)n2nc1N1CCc2ncc(-c3cn(C)nc3C(F)F)cc2C1 [Compound 1-412, 7-(3-(3-(difluoromethyl)-1-methyl-1H-pyrazol-4-yl)-7,8-dihydro-1,6-naphthyridin-6(5H)-yl)-8-methyl-4H-pyrimido [1,2-b]pyridazin-4-one] gave an Emax at 30 µM of 86% and an EC50 of 352 nM.
Cc1cc2nccc(=O)n2nc1N1CCc2ncc(-c3cnn(C)c3C(F)F)cc2C1 [Compound 1-413, 7-(3-(5-(difluoromethyl)-1-methyl-1H-pyrazol-4-yl)-7,8-dihydro-1,6-naphthyridin-6(5H)-yl)-8-methyl-4H-pyrimido[1,2-b]pyridazin-4-one] showed an Emax at 30 µM of 89% and an EC50 of 208 nM.
In the case of Cc1cc2nccc(=O)n2nc1N1CCc2ncc(-c3cnn(C(F)F)c3C)cc2C1 [Compound 1-414, 7-(3-(1-(difluoromethyl)-5-methyl-1H-pyrazol-4-yl)-7,8-dihydro-1,6-naphthyridin-6(5H)-yl)-8-methyl-4H-pyrimido[1,2-b]pyridazin-4-one], the Emax at 30 µM is reported as 81% and the EC50 is reported as 435 nM.
